Test results as given in patent publication US7855232B2, “Organoselenium compound for cancer chemoprevention” (LKT Laboratories, Inc., priority 2001, dated 2010).
Marks after values point to notes of the source that are not given here.

Assays:
[1] = system: GSH; experiment: Glutathione (GSH) concentration in tissues of treated mice, HPLC; format: in vivo, Female A/J mice; details: liver; for Ratio Test/con (GSH): gavage; for GSH conc.: gavage in corn oil
Procedure: GSH was quantitated by modification of the procedure Siller-Cepeda et al. Plant Cell Physiol. 32:1179-1185 (1991). Aliquots of tissue homogenates were mixed with equal volumes of 20% PCA containing 2 mM BPDS. Vortex, centrifuge at 7800×g for 15 minutes at 4° C. and 250 μl supernatant transferred into a microfuge tube containing 25 μl of γ-glu-glu as internal standard. The samples were carboxymethylated with 25 μl of 100 mM iodoacetic acid dissolved in 0.2 mM m-cresol purple sodium salt solution. The pH of the solution was adjusted to 9-10 by adding 350 μl of KOH (2M)-KHCO3 (2.4 M) mixture and incubated in the dark for 15 minutes. After carboxymethylation, the samples were derivatized with 500 μl of 1% dinitrofluorobenzene (DNFB) and kept in the dark at 4° C. overnight. The samples were centrifuged at 13,000×g for 15 minutes, filtered through 0.2 μm filter, and were analyzed with a SHIMADZU two-pump gradient HPLC system. Samples were injected by a SHIMADZU SIL-10AV Autoinjector onto a Varian 3-aminopropyl MICROSORB-MV column (4.6×250 mm) operated at ambient temperature with a flow rate of 1 ml/min. Absorbance of the dinitrophenyl derivatives was monitored at 365 nm. The amount of GSH was calculated from a standard curve using γ-glu-glu as internal standard.

[2] = system: Glutathione S-Transferase; experiment: Glutathione S-transferase (GST) activity in tissue cytosol of treated mice, CDNB substrate; format: in vivo, Female A/J mice; details: for Ratio Test/con (GST): gavage; for GST act.: gavage in corn oil
Procedure: The activity of cytosolic was assayed according to the method of Habig et al. using 1-chloro-2,4-dinitrobenzene (CDNB) as the substrate. Habig et al, J. Biol. Chem. 249:7130-7139 (1974). The complete solution contains, in a total volume of 2.0 mL, 0.1 M phosphate buffer, pH 6.5, 5 mM glutathione, 1 mM CDNB, and 20 μL of the cytosol. The reaction was monitored at 340 nm in a Beckman Model DU65 UV-VIS spectrophotometer. Assays were performed at 30° C. Complete assay mixture without the cytosolic enzyme was used as the reference blank. Data as analyzed by the Student's “t” test and P values were obtained in comparison to the control.

[3] = system: aberrant crypts (AC); experiment: Inhibition of DMH-induced aberrant crypt (AC) formation in colon; format: in vivo, Female CF1 mice; details: with DMH
Description: Precancerous lesions called aberrant crypts (AC) are used as a marker for colon carcinogenesis. Mice and rats, when exposed to colon-specific carcinogen, develop preneoplastic changes in colon crypts which leads to malignancy through dysplasia-carcinoma sequence. […] McLellan et al., Cancer Res. 48:6183-6186 (1988); McLellan et al., Cancer Res. 48:2311-2315 (1988).
The effect of colon-specific carcinogenesis is typically seen in the induction of AC formation in less than two weeks. AC formation is dose dependent and can be quantitated without elaborate instrumentation. In view of the short time-frame required to get quantifiable results, this bio-assay is a useful prescreening tool for the evaluation of chemopreventative efficacy of compounds that are effective against colon cancer. The protocol for aberrant crypts is shown below:
Female CF1 mice, 3 weeks of age, were purchased from Harlan Sprague-Dawley, Indianapolis, 1N. They were housed, 5 mice per cage, in temperature and humidity-controlled animal quarters with 12 hours light/dark cycle and fed AIN 76A semipurified diet until the ent of the experiment. Water was given ad libitim. The animals were separated into experimental and control groups. The test compounds 0.03-0.04 mmol/kg body weight dissolved in 0.3 mL corn oil, were given by gavage one per day for 8 days. One hour after the inhibitors administration on the 4th and 8th days, 0.4 mg of DMH in 0.2 mL of 0.001 M EDTA, adjusted to pH 6.5 with sodium bicarbonate, was given by gavage. Starting on the 9th day, the inhibitors were given once every other day for an additional 3 weeks. This regimen of inhibitor administration ensures the coverage both the initiation and post initiation periods of carcinogen exposure.
At the end of the 3 week period, the animals were sacrificed and the colons removed. The starting and terminating weights of the animals were recorded. The procedures for the determination of aberrant crypts were those reported by Bird (Cancer Letters 37:147-151 (1987)). The mouse colon including the caecum was removed, rinsed with PBS, and opened longitudinally. The colon contents was removed by washing with PBS. The colon was spread mucosal side up on a piece of filter paper and fixed in buffered formalin overnight. It was then stained with 0.2% methylene blue in PBS for 60 min. The AC foci was read under light microscope. The AC are topographically distinguished by their increased size, increased pericryptal zone, and thicker and deeply stained epithelial lining compared to normal crypts. The number of foci and AC in the colorectal and caecal parts of the colon were recorded separately. The significance of the data was determined by the analysis of variance method. The significance of the incidence of aberrant crypts bearing animals was analyzed by the X^2 test. The aberrant crypts were examined histologically to verify the dysplastic nature of the changes in animals treated with carcinogens and those treated with carcinogens and inhibitors.

[4] = colon, dose 0.02 mmol/Kg body weight
[5] = colon, dose 0.04 mmol/Kg body weight
[6] = forestomach, dose 0.02 mmol/Kg body weight
[7] = forestomach, dose 0.04 mmol/Kg body weight
[8] = liver, dose 0.02 mmol/Kg body weight
[9] = liver, dose 0.04 mmol/Kg body weight
[10] = lung, dose 0.02 mmol/Kg body weight
[11] = lung, dose 0.04 mmol/Kg body weight
[12] = small intestinal mucosa, dose 0.02 mmol/Kg body weight
[13] = small intestinal mucosa, dose 0.04 mmol/Kg body weight

For N#C[Se]Cc1ccc(C[Se]C#N)s1 [(2) TDMSC, thienyl-2,5-di-methylene selenocyanate], the “Ratio Test/con (GSH)” value ([1]; dose 0.02 mmol/Kg body weight) was 1.28, the GSH conc. ([1]; dose 0.02 mmol/Kg body weight) was 4.91 ± 1.16 μmol/gm tissue weight and the “Ratio Test/con (GSH)” value ([1]; dose 0.04 mmol/Kg body weight) was 1.20. For the same compound, the GSH conc. ([1]; dose 0.04 mmol/Kg body weight) was 4.60 ± 2.13 μmol/gm tissue weight, the “Ratio Test/con (GST)” value [2, 4] was 1.00 and the GST act. [2, 4] was 0.40 ± 0.04 μmol/min mg protein. The “Ratio Test/con (GST)” value [2, 5] was 1.00, the GST act. [2, 5] was 0.40 ± 0.01 μmol/min mg protein and the “Ratio Test/con (GST)” value [2, 6] was 1.15. For the same compound, the GST act. [2, 6] was 0.90 ± 0.12 μmol/min mg protein, the “Ratio Test/con (GST)” value [2, 7] was 1.15 and the GST act. [2, 7] was 0.90 ± 0.11 ^g μmol/min mg protein. For the same compound, the “Ratio Test/con (GST)” value [2, 8] was 1.27, the GST act. [2, 8] was 1.43 ± 0.2 ^g μmol/min mg protein and the “Ratio Test/con (GST)” value [2, 9] was 1.12. The GST act. [2, 9] was 1.26 ± 0.21 μmol/min mg protein, the “Ratio Test/con (GST)” value [2, 10] was 1.04 and the GST act. [2, 10] was 0.49 ± 0.07 μmol/min mg protein. The “Ratio Test/con (GST)” value [2, 11] was 1.15, the GST act. [2, 11] was 0.54 ± 0.09 μmol/min mg protein and the “Ratio Test/con (GST)” value [2, 12] was 1.03. The GST act. [2, 12] was 0.35 ± 0.01 μmol/min mg protein, the “Ratio Test/con (GST)” value [2, 13] was 1.18 and the GST act. [2, 13] was 0.40 ± 0.16 μmol/min mg protein. The ACF/Colon ([3]; low dose 0.03 mmol/kg body weight, gavage, DMH alone 1.13) was 0.50, the AC/Foci ([3]; low dose 0.03 mmol/kg body weight, gavage, DMH alone 1.28) was 1.00 and the AC/Colon ([3]; low dose 0.03 mmol/kg body weight, gavage, DMH alone 1.44) was 0.50. The “Total ACF” value ([3]; low dose 0.03 mmol/kg body weight, gavage, DMH alone 18) was 4, the “Total AC” value ([3]; low dose 0.03 mmol/kg body weight, gavage, DMH alone 23) was 4 and the “% animals” value ([3]; low dose 0.03 mmol/kg body weight, gavage, DMH alone 43.7) was 24.0%. For the same compound, the “protection (inhibition of aberrant crypt formation)” value ([3]; low dose) was “more than 50%”.
